In ChEMBL document CHEMBL1201862, “PubChem BioAssay data set” (2004):
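Interpolation was linear, between the two tested concentrations surrounding the appropriate level; five concentrations were tested over 48 hours in 96-well plates. GI50: concentration for 50% inhibition of growth.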 The source made the active and inactive calls. Cut-off read from the data, not from the text of the source: active = GI50 up to about 1.1 µM and inactive = higher.

Experiments:
Test in all cases: NCI tumour cell line growth inhibition, 48 h
HCT-15 = test system: HCT-15
SK-MEL-28 = test system: SK-MEL-28
HCC 2998 = test system: HCC 2998
RXF 393 = test system: RXF 393
NCI-H23 = test system: NCI-H23
SK-MEL-2 = test system: SK-MEL-2
HL-60 = test system: HL-60
COLO 205 = test system: COLO 205
SNB-19 = test system: SNB-19
UO-31 = test system: UO-31
HT-29 = test system: HT-29
ACHN = test system: ACHN
UACC-62 = test system: UACC-62
SW-620 = test system: SW-620
Malme-3M = test system: Malme-3M
KM12 = test system: KM12
UACC-257 = test system: UACC-257
MOLT-4 = test system: MOLT-4

| Structure (SMILES) | GI50 (HCT-15) | GI50 (SK-MEL-28) | GI50 (HCC 2998) | GI50 (RXF 393) | GI50 (NCI-H23) | GI50 (SK-MEL-2) | GI50 (HL-60) | GI50 (COLO 205) | GI50 (SNB-19) | GI50 (UO-31) | GI50 (HT-29) | GI50 (ACHN) | GI50 (UACC-62) | GI50 (SW-620) | GI50 (Malme-3M) | GI50 (KM12) | GI50 (UACC-257) | GI50 (MOLT-4) |
| --- | --- | --- | --- | --- | --- | --- | --- | --- | --- | --- | --- | --- | --- | --- | --- | --- | --- | --- |
| c1ccc(CCCC2Sc3cccc4cccc(c34)S2)cc1 | > 100 µM | > 100 µM (inactive) | 88.7 µM (inactive) | > 100 µM (inactive) | > 100 µM (inactive) | > 100 µM (inactive) | 64.6 µM (inactive) | > 100 µM (inactive) | > 100 µM (inactive) | > 100 µM (inactive) | 78.9 µM (inactive) | > 100 µM (inactive) | > 100 µM (inactive) | > 100 µM (inactive) | 78.3 µM (inactive) | > 100 µM (inactive) |  |  |
| c1ccc(-c2sc(-c3ccccc3)c3c2C(c2ccccc2)c2c(-c4ccccc4)sc(-c4ccccc4)c2C3c2ccccc2)cc1 (configuration not stated) | > 100 µM | > 100 µM (inactive) | > 100 µM (inactive) | > 100 µM (inactive) | > 100 µM (inactive) |  | > 100 µM (inactive) | > 100 µM (inactive) | > 100 µM (inactive) | > 100 µM (inactive) | > 100 µM (inactive) | > 100 µM (inactive) | > 100 µM (inactive) | > 100 µM (inactive) | > 100 µM (inactive) | > 100 µM (inactive) | > 100 µM (inactive) |  |
| CC1=C(c2cc(C(=O)Nc3nccs3)nc(NC#N)n2)Sc2ccccc2N1 | 65.3 µM | > 100 µM (inactive) |  |  | > 100 µM (inactive) | > 100 µM (inactive) | > 100 µM (inactive) | > 100 µM (inactive) | > 100 µM (inactive) | > 100 µM (inactive) | > 100 µM (inactive) | > 100 µM (inactive) | > 100 µM (inactive) | > 100 µM (inactive) | > 100 µM (inactive) | > 100 µM (inactive) | > 100 µM (inactive) | > 100 µM (inactive) |
| O=C(CSc1nnc(-c2ccc(/N=C\c3ccc(Cl)cc3)cc2)o1)Nc1ccccc1Cl | > 100 µM | > 100 µM (inactive) |  | > 100 µM (inactive) | > 100 µM (inactive) | > 100 µM (inactive) | > 100 µM (inactive) | > 100 µM (inactive) | > 100 µM (inactive) | > 100 µM (inactive) | > 100 µM (inactive) | > 100 µM (inactive) | > 100 µM (inactive) | > 100 µM (inactive) | > 100 µM (inactive) | > 100 µM (inactive) | 20.7 µM (inactive) | > 100 µM (inactive) |
| CC(C)C(N)=O [ISOBUTYRAMIDE] | > 5000 µM | > 5000 µM (inactive) |  | > 5000 µM (inactive) | > 5000 µM (inactive) | > 5000 µM (inactive) | > 5000 µM (inactive) | > 5000 µM (inactive) |  | > 5000 µM (inactive) | > 5000 µM (inactive) | > 5000 µM (inactive) | > 5000 µM (inactive) | > 5000 µM (inactive) | > 5000 µM (inactive) | > 5000 µM (inactive) | > 5000 µM (inactive) | > 5000 µM (inactive) |
| Cc1cc(=O)n2c3c(c4c(cc13)c(CO)cc(=O)n4C)OC2 |  | 18.8 µM (inactive) | 14.8 µM (inactive) |  | 13.5 µM (inactive) | 7.46 µM (inactive) |  | 16.5 µM (inactive) | 10.5 µM (inactive) | 7.69 µM (inactive) | 19.5 µM (inactive) | 9.57 µM (inactive) | 12.5 µM (inactive) | 5.71 µM (inactive) | 8.65 µM (inactive) | 7.94 µM (inactive) | 26.2 µM (inactive) |  |
| CN(C(=N)c1ccccc1)c1ccccc1 | > 100 µM | > 100 µM (inactive) | > 100 µM (inactive) |  | > 100 µM (inactive) | > 100 µM (inactive) | > 100 µM (inactive) | > 100 µM (inactive) | > 100 µM (inactive) | > 100 µM (inactive) | > 100 µM (inactive) |  | > 100 µM (inactive) | > 100 µM (inactive) |  | > 100 µM (inactive) |  | > 100 µM (inactive) |
| O=C(O)CCSC(=O)Nc1ccccc1Cl | > 100 µM | > 100 µM (inactive) | > 100 µM (inactive) | > 100 µM (inactive) | > 100 µM (inactive) |  |  | > 100 µM (inactive) | > 100 µM (inactive) | > 100 µM (inactive) | > 100 µM (inactive) | > 100 µM (inactive) | > 100 µM (inactive) | > 100 µM (inactive) | > 100 µM (inactive) | 51.2 µM (inactive) | > 100 µM (inactive) | > 100 µM (inactive) |
| CC(=O)c1c(O)ccc2c1CC(CC=O)O2 (configuration not stated) | 52.6 µM | > 100 µM (inactive) | > 100 µM (inactive) | > 100 µM (inactive) | 53.6 µM (inactive) |  | > 100 µM (inactive) | > 100 µM (inactive) | > 100 µM (inactive) | 63.2 µM (inactive) | 37.2 µM (inactive) | > 100 µM (inactive) | 28.8 µM (inactive) | 43.9 µM (inactive) | > 100 µM (inactive) | > 100 µM (inactive) | > 100 µM (inactive) | > 100 µM (inactive) |
